Test results: patent publication US7608278B2, “Formulations of hydrophobic proteins in an immunogenic composition having improved tolerability” (priority 2003, dated 2009)
Values joined by “and” are separate entries in the source; they are usually repeats but may differ in a detail not shown here. Equal entries are not always repeated. Where two headings read alike, the source gives them in different places.

Assays:
rat footpad = experiment: Rat footpad (paw-lick) pain test; format: in vivo, Male Sprague Dawley rats; conditions: for Mean time pain response, 0-10 min. / Mean time pain response, 10-20 min.: 8 rats per group; for Pain response in the rat footpad model (result in words): Examples 1-7 and 10, footpad injection 0.1 or 0.2 ml; for Pain in rat footpad model, survey of detergents (result in words): Example 9, injected at concentrations above the CMC for the detergent
From the text: An animal model, the rat paw-lick (footpad) model, which has previously been employed for detection of pain associated with the injection of antibiotics, was utilized (Celozzi et al. J. Pharmacol. Methods, 1980, 4:[…]; Comerski et al., Fundamental and Appl. Toxicology, 1986, 6:335-338). This model monitors the amount of time the rats spend lifting, licking, and biting the injected paw.
The “rat footpad pain” or “rat paw-lick” test or model as used herein refers to a test or model used to determine the pain induced by a specific formulation upon injection. The test consists of uniformly injecting into the footpad of rats of the same species and approximately the same weights compositions to be assessed as pain causing agents along with compositions known to cause pain at the injection site, as well as compositions known not to cause pain at the injection site. A statistically significant number of animals are to be used for each test and control formulation. After the injection, the animal is placed in a cage with mirrors and then observed by a technician (preferably blinded as to the identity of the immunogenic composition) for 20 to 30 minutes for flinching, lifting, licking, or biting of the injected paw. The amount of time spent on these pain response behaviors are recorded using a stopwatch and summed for 10 minute periods.
The phrase “less painful” as used herein refers to an alteration in the composition that leads to a reduction in the length of time or intensity, or both, of a pain response compared to that of the non-altered composition as measured by the rat footpad pain test. The phrase “50% reduction in pain” as used herein refers to a 50% reduction in the amount of time spent on pain responses as measured by the rat footpad pain test when comparing altered and unaltered immunogenic compositions administered in equal injection volumes by the same means and observed for the same length of time. The number of animals in each group is a statistically significant number. Observation of the different injection groups is preferably done by the same technician and who is blinded as to the identification of the compositions.
Rat footpad pain testing. The immunogenic composition samples were brought to room temperature prior to being administered to the animals. The animals were injected by a technician who was not involved in the monitoring of pain responses. Male Sprague Dawley rats (Crl:CD®(SD)IGS BR, 50-100 g at arrival) from Charles River Laboratories Inc. (Kingston, N.Y.) were used for all studies. The rats were acclimated at the research facility for approximately one week prior to initiation of a study, at which point they weighed 100-150 g. The paw to be injected was examined prior to injection to verify absence of any injury. The animal was then restrained in the technician's arm such that the hind legs extended forward. The right rear leg was grasped just above the hock joint and pressure was exerted to hold the paw straight out, with plantar (sole) facing upwards. Using a new 23 gauge needle for each animal, the operator inserted the bevel side up in the center of paw, parallel to the surface of the paw, until the needle was in the center of the pad. The material was then injected and the needle left in place for 3-5 seconds prior to withdrawal, to minimize leakage from the injection site. […]
The animal was then placed in a cage with 3 mirrors (adjoining sides and floor) and observed by a different technician (blinded as to the identity of the immunogenic composition) for 30 minutes for flinching, lifting, licking, or biting of the injected paw. The length of time spent on these pain response behaviors was recorded using a stopwatch and summed for 10 minute periods. […]
Statistical Analysis. Results were analyzed using an ANOVA method adjusting for multiple comparisons that compared each treatment group with control group who received buffer alone (either PBS or TBS). […]

[1] = known critical micelle concentrations, cited from earlier work
[2] = Example 1 (Table 1), 0.1 ml footpad injection, 6 rats per group
[3] = Example 4 (Table 7), 0.2 ml injection (formalin 0.1 ml), 10 rats per group
[4] = Example 6 (Table 11), 0.2 ml injection (formalin 0.1 ml), 10 rats per group
[5] = Example 7 (Table 13), 0.2 ml injection (formalin 0.1 ml), 10 rats per group
[6] = Example 9 (Table 15), concentration 5%, 100 μl
[7] = Example 9 (Table 16), concentration 5%, 100 μl
[8] = Example 9 (Table 17), concentration 5%, 100 μl
[9] = Example 9 (Table 16), concentration 0.9%, 200 μl
[10] = Example 9 (Table 17), concentration 0.8%, 200 μl
[11] = Example 9 (Table 17), concentration 7 mM, 200 μl
[12] = Example 9 (Table 16), concentration 1%, 200 μl
[13] = Example 9 (Table 16), concentration 0.025%, 200 μl
[14] = Example 9 (Table 15), detergent concentration 0.05%, 200 μl
[15] = Example 9 (Table 15), detergent concentration 0.05%, 200 μl, listed as Zw3-14
[16] = Example 9 (Table 16), concentration 0.02%, 200 μl
[17] = Example 9 (Table 17), concentration 0.5%, 200 μl

## C=O [5% Formalin]
Rat footpad; [2]
  Time pain response, Mean, 0-10 min.: 274 s
  Time pain response, Mean, 10-20 min.: 312 sec
  Time pain response, Mean, 20-30 min.: 450 s
  Time pain response, Median, 10-20 min.: 292 sec
  Time pain response, Median, 20-30 min.: 448 s
Rat footpad; Example 1 (Table 1), 0.1 ml footpad injection, 6 rats per group, PBS not pyrogen-free
  Time pain response, Median, 0-10 min.: 311 s
Rat footpad; [3]
  0-10 min. time pain response, Mean: 178 s
  0-10 min. time pain response, Median: 162 s
  10-20 min. time pain response, Mean: 174 sec
  10-20 min. time pain response, Median: 173 sec
Rat footpad; [4]
  0-10 min. time pain response, Mean: 225 s
  0-10 min. time pain response, Median: 219 s
  10-20 min. time pain response, Mean: 167 sec
  10-20 min. time pain response, Median: 181 sec
Rat footpad; [5]
  0-10 min time pain response, Mean: 252 s
  0-10 min time pain response, Median: 233 s
  10-20 min. time pain response, Mean: 435 sec
  10-20 min. time pain response, Median: 448 sec
Rat footpad; [6]
  Mean time pain response, 0-10 min.: 161.3 s
  Mean time pain response, 10-20 min.: 313.5 sec.
Rat footpad; [7]
  Mean time pain response, 0-10 min.: 114 s
  Mean time pain response, 10-20 min.: 218 sec.
Rat footpad; [8]
  Mean time pain response, 0-10 min.: 272.5 s
  Mean time pain response, 10-20 min.: 280.4 sec.
Rat footpad
  Pain response in the rat footpad model (result in words): induced the highest pain response among the compositions tested

## C[C@H](CCC(=O)N(CCCNC(=O)[C@H](O)[C@@H](O)[C@H](O)[C@H](O)CO)CCCNC(=O)[C@H](O)[C@@H](O)[C@H](O)[C@H](O)CO)[C@H]1CC[C@H]2[C@@H]3[C@H](O)C[C@@H]4C[C@H](O)CC[C@]4(C)[C@H]3C[C@H](O)[C@]12C [BigCHAP ®, N,N-bis(3-D-glucon-amidopropyl)cholamide]
[1]
  CMC: 3 to 4 mM
  CMC (%): 0.3%

## C[C@H](CCC(=O)NCCC[N+](C)(C)CCCS(=O)(=O)[O-])[C@H]1CC[C@H]2[C@@H]3[C@H](O)C[C@@H]4C[C@H](O)CC[C@]4(C)[C@H]3C[C@H](O)[C@]12C [CHAPS ®, 3-[(3-Cholamidopropyl)dimethylammonio]-1-propanesulfonate]
Rat footpad; [9]
  Mean time pain response, 0-10 min.: 351 s
  Mean time pain response, 10-20 min.: 114 sec.
Rat footpad
  Pain in rat footpad model, survey of detergents (result in words): caused significant pain
  Pain response in the rat footpad model (result in words): cause considerable pain
[1]
  CMC: 6 to 10 mM
  CMC (%): 0.18-0.62%

## CCCCCCCCCCCCO[C@@H]1O[C@H](CO)[C@@H](O[C@H]2O[C@H](CO)[C@@H](O)[C@H](O)[C@H]2O)[C@H](O)[C@H]1O [Dodecyl maltoside, n-Dodecyl-beta-D-maltoside]
Rat footpad; [10]
  Mean time pain response, 0-10 min.: 298.0 s
  Mean time pain response, 10-20 min.: 141.0 sec.
Rat footpad
  Pain in rat footpad model, survey of detergents (result in words): induced pain

## CCCCCCCCCC(=O)N(C)C[C@H](O)[C@@H](O)[C@H](O)[C@H](O)CO [Mega10, Decanoyl-N-methylglucamide]
Rat footpad; [11]
  Mean time pain response, 0-10 min.: 28.8 s
  Mean time pain response, 10-20 min.: 31.0 sec.

## CCCCCCCCO[C@@H]1O[C@H](CO)[C@@H](O)[C@H](O)[C@H]1O [Octyl glucoside, n-Octyl-b-D-glucopyranoside]
Rat footpad; [12]
  Mean time pain response, 0-10 min.: 48 s
  Mean time pain response, 10-20 min.: 108 sec.
Rat footpad
  Pain in rat footpad model, survey of detergents (result in words): induced pain
  Pain response in the rat footpad model (result in words): cause considerable pain

## CCCCCCCC/C=C\CCCCCCCC(=O)OCCOCC(OCCO)C1OCC(OCCO)C1OCCO (stereo not shown) [TWEEN 80, Polyoxyethylene (20) sorbitan monooleate]
Rat footpad; [13]
  Mean time pain response, 0-10 min.: 3 s
  Mean time pain response, 10-20 min.: 6 sec.
Rat footpad
  Pain in rat footpad model, survey of detergents (result in words): do not cause significant pain
[1]
  CMC: 0.012 mM
  CMC (%): 0.0016%

## CCCCCCCC[N+](C)(C)CCCS(=O)(=O)[O-] [Zwittergent ® 3-8, n-Octyl-N,N-dimethyl-3-ammonio-1-propanesulfonate]
[1]
  CMC: 330 mM
  CMC (%): 4.6-10.9%

## CCCCCCCCCC[N+](C)(C)CCCS(=O)(=O)[O-] [Zwittergent ® 3-10, n-Decyl-N,N-dimethyl-3-ammonio-1-propanesulfonate]
Rat footpad; [10]
  Mean time pain response, 0-10 min.: 300.6 s
  Mean time pain response, 10-20 min.: 260.5 sec.
Rat footpad
  Pain in rat footpad model, survey of detergents (result in words): caused significant pain
[1]
  CMC: 25 to 40 mM
  CMC (%): 0.43-1.23%

## CCCCCCCCCCCC[N+](C)(C)CCCS(=O)(=O)[O-] [Zwittergent ® 3-12, n-Dodecyl-N,N-dimethyl-3-ammonio-1-propanesulfonate]
Rat footpad; [14]
  Mean time pain response, 0-10 min.: 295.3 s
  Mean time pain response, 10-20 min.: 139.8 sec.
Rat footpad
  Pain in rat footpad model, survey of detergents (result in words): caused significant pain
  Pain response in the rat footpad model (result in words): responsible for the pain on injection
[1]
  CMC: 2 to 4 mM
  CMC (%): 0.047-0.13%

## CCCCCCCCCCCCCC[N+](C)(C)CCCS(=O)(=O)[O-] [Zwittergent ® 3-14, n-Tetradecyl-N,N-dimethyl-3-ammonio-1-propanesulfonate]
Rat footpad; [15]
  Mean time pain response, 0-10 min.: 44.7 s and 37.8 s
  Mean time pain response, 10-20 min.: 33.6 sec. and 30.1 sec.
Rat footpad
  Pain in rat footpad model, survey of detergents (result in words): caused significant pain
  Pain response in the rat footpad model (result in words): responsible for the pain on injection
[1]
  CMC: 0.1 to 0.4 mM
  CMC (%): 0.004-0.015%
[1]; listed as Zw 3-14
  CMC (%): 0.004%-0.015%

## Polyoxyethylene (35) Lauryl Ether [BRIJ]
Rat footpad; [16]
  Mean time pain response, 0-10 min.: 1 s
  Mean time pain response, 10-20 min.: 0 sec.
Rat footpad
  Pain in rat footpad model, survey of detergents (result in words): do not cause significant pain
[1]
  CMC: 0.09 mM
  CMC (%): 0.011%

## Sodium deoxycholate
Rat footpad; [17]
  Mean time pain response, 0-10 min.: 307.0 s
  Mean time pain response, 10-20 min.: 121.9 sec.

## alpha-[4-(1,1,3,3-tetramethylbutyl)phenyl]-omega-hydroxypoly(oxy-1,2-ethanediyl) [TRITON ® X-100]
Rat footpad; [14]
  Mean time pain response, 0-10 min.: 8.5 s
  Mean time pain response, 10-20 min.: 11.2 sec.
Rat footpad
  Pain in rat footpad model, survey of detergents (result in words): do not cause significant pain
[1]
  CMC: 0.2 to 0.9 mM
  CMC (%): 0.013-0.056%
